“Also recorded” adds a separate entry of the source. Where a name gives a salt, the structure may show the parent alone. Read-outs that look alike come from different tables or passages of the source.
Tests used:
SIGMA RECEPTOR = target: T1, SIGMA RECEPTOR (Cavia porcellus, UniProt Q60492); test: Sigma receptor binding assay ([3H]-d-SKF-10,047 displacement, brain membranes); parameters: species or system guinea-pig (male Hartley)
T1 construct: Two milliter aliquots of the brain membrane preparation, containing 1.7 mg of protein; tissue Pel-Freeze (Rogers, Arkansas); host or cells: guinea-pig brains plus cerebella, membranes
T1 sequence (Q60492 whole entry): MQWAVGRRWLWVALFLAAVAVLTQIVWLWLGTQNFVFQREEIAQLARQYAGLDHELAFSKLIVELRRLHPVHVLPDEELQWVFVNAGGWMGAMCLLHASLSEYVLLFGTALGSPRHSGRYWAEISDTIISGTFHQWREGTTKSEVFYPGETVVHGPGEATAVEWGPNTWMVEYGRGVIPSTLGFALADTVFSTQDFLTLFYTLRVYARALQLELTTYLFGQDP
Protocol: (§1) This example illustrates testing of compounds in receptor binding assays.
(§2) Frozen brains from male Hartley guinea-pigs were obtained from Pel-Freeze (Rogers, Arkansas).
(§3) The brains plus cerebella were homogenized in 10 volumes (v/w) of 0.1M, pH 7.4, ice-cold Tris-HCl buffer with a Brinkmann polytron at setting 4 for 20 seconds. The homogenates were centrifuged at 20,000×g for 20 minutes at 4° C. The pellets were suspended in 10 volumes of ice-cold water and, after sitting on ice for 10 minutes, were centrifuged 30 minutes at 20,000×g at 4° C. The resulting pellets were resuspended in the above Tris buffer in ratio 1:100 (w/v) for σ receptor assays or in 5 mM Tris-HCl having pH 7.4, for PCP receptor assays. The final suspension was homogenized with a dounce glass-glass tissue grinder Wheaton "200", at small clearance (B), with three strokes before use. Two milliter aliquots of the brain membrane preparation, containing 1.7 mg of protein, were incubated in quadruplicate for one hour at 23° C. with competing mixture of ligand and radioligand. For σ receptors, [^3 H]-d-SKF-10,047, 2 nM was used. For PCP receptors, [^3 H] TCP [^3 H]-1-[1-(2-thienyl)cyclohexyl]piperidine), 1 nM was used. The nonspecific bindings were defined by 0.1 mM d-SKF-10,047 and 0.1 mM phencyclidine respectively for σ and PCP receptors. After incubation, free ligand was separated from bound ligand by rapid filtration through Whatman GF/C filters. The filters had been soaked before use in isoamyl alcohol-saturated water to prevent nonspecific [^3 H]-d-SKF-10,047 binding to the filter. In the PCP receptor assay, the filter was soaked in 0.5% polyethylenimine to reduce the filter binding of [^3 H]-TCP. After filtration, the trapped tissue was washed three times with 4 ml aliquots of 0.1 M ice-cold Tris buffer at pH 7.4 for σ receptors and 5 mM, ice-cold Tris buffer pH 7.4 for PCP receptors. The filters were transferred to 5 ml of liquid scintillation fluid and the retained radioactivity was measured by liquid scintillation spectrometry.

PCP RECEPTOR = test: PCP receptor binding assay ([3H]-TCP displacement, brain membranes); parameters: species or system guinea-pig (male Hartley); settings: for IC50: read-out: PCP RECEPTOR IC50
Protocol: as §1, §2, §3
Programs in Biomed. 17:107 (1983)].

[1] = Table 2, aryl ring substituents, read-out: SIGMA RECEPTOR IC50
[2] = Table 2, aryl ring substituents
[3] = SIGMA RECEPTOR IC50, Table 1, mean ± error (n)
[4] = Table 1, slope of dose response curve
[5] = Table 3, cycloalkyl ring size, read-out: SIGMA RECEPTOR IC50
[6] = Table 1, mean ± error (n), read-out: SIGMA RECEPTOR IC50

| SMILES | potency at σ receptors (in words) (SIGMA RECEPTOR) | IC50 (SIGMA RECEPTOR; [1]) [nM] | IC50 (PCP RECEPTOR; [2]) [µM] | IC50 (PCP RECEPTOR; Table 1, mean ± error (n)) [µM] | SIGMA RECEPTOR SLOPE (SIGMA RECEPTOR; Table 2) | potency at PCP receptors (in words) (PCP RECEPTOR) | also measured |
| --- | --- | --- | --- | --- | --- | --- | --- |
| Oc1cccc(C2(CN3CCCCC3)CCCCC2)c1 [Compound 21] | diminished binding to σ receptors | > 25000 | > 25 |  |  |  |  |
| c1ccc(C2(N3CCOCC3)CCCCC2)cc1 [Compound 10, 4-(1-phenylcyclohexyl)morpholine, reference compound] |  |  |  | 0.633 ± 0.071 |  |  | IC50 (SIGMA RECEPTOR; [3]): 2530 nM; SIGMA RECEPTOR SLOPE (SIGMA RECEPTOR; [4]): 0.47 ± 0.02 |
| O=C(OCCN1CCCC1)C1(c2ccccc2)CCCC1 [Compound 46] |  |  |  |  |  |  | SIGMA RECEPTOR SLOPE (SIGMA RECEPTOR; Table 3): 0.68 ± 0.06; IC50 (SIGMA RECEPTOR; [5]): 454 nM; IC50 (PCP RECEPTOR; Table 3, cycloalkyl ring size): > 25 µM |
| COc1cccc(C2(CN(C)C)CCCCC2)c1 [Compound 42] |  | 2850 | > 25 |  | 0.70 ± 0.06 |  |  |
| CN(C)C1(c2ccccc2)CCCCC1 [Compound 17, N,N-dimethyl-1-phenylcyclohexylamine, reference compound] |  |  |  | 0.242 ± 0.008 |  |  | IC50 (SIGMA RECEPTOR; [3]): 1950 nM; SIGMA RECEPTOR SLOPE (SIGMA RECEPTOR; [4]): 0.53 ± 0.05 |
| c1ccc(C2(CCN3CCCC3)CCCCC2)cc1 [Compound 7] |  |  |  | 1.72 |  | decreased the potency in the PCP receptor assay | IC50 (SIGMA RECEPTOR; [6]): 141 nM; SIGMA RECEPTOR SLOPE (SIGMA RECEPTOR; [4]): 1.22 ± 0.03; increased potency for σ receptors (SIGMA RECEPTOR; relative to PCPY (5)): approximately 30 fold |
| O=[N+]([O-])c1ccc(C2(CN3CCCCC3)CCCCC2)cc1 [Compound 24] | slightly lower σ receptor potencies | 249 | > 25 |  | 0.47 ± 0.06 |  | selectivity for σ receptors (in words) (SIGMA RECEPTOR): substantially increases selectivity for σ receptors |
| COc1ccc(C2(CN3CCCCC3)CCCCC2)cc1OC [Compound 28] | slightly lower σ receptor potencies; also recorded: poor to reasonable potency at σ sites | 387 ± 18 | > 25 |  | 0.56 ± 0.03 |  | selectivity for σ receptors (in words) (SIGMA RECEPTOR): substantially increases selectivity for σ receptors; also recorded: high selectivity for σ receptors |
| Clc1cccc(C2(CN3CCCCC3)CCCCC2)c1 [Compound 25] | most potent at σ receptors |  | 1.83 |  | 0.69 ± 0.05 | showed some potency at PCP receptors | selectivity for σ receptors (in words) (SIGMA RECEPTOR): least specific; IC50 (SIGMA RECEPTOR; read-out: IC50 at σ receptors): 71 nM |
| Cc1ccc(C2(CN(C)C)CCCCC2)cc1 [Compound 41] |  | 541 | > 25 |  | 0.62 ± 0.03 |  |  |
| COc1cccc(C2(CN3CCCCC3)CCCCC2)c1 [Compound 26] | slightly lower σ receptor potencies | 326 | > 25 |  | 0.74 ± 0.07 |  | selectivity for σ receptors (in words) (SIGMA RECEPTOR): substantially increases selectivity for σ receptors |
| COc1cccc(C2(CN3CCOCC3)CCCCC2)c1 [Compound 37] |  | > 25000 | > 25 |  |  |  |  |
| C[N+]1(CCOC(=O)C2(c3ccccc3)CCCCC2)CCCC1 [Compound 9] | σ receptor potency increased; also recorded: effectively reversed the potency for σ receptors |  |  | > 25 |  | inactive in the PCP assay; also recorded: did not increase potency for PCP receptors | IC50 (SIGMA RECEPTOR; [6]): 242 nM; SIGMA RECEPTOR SLOPE (SIGMA RECEPTOR; [4]): 0.62 ± 0.18 |
| COc1cccc(C2(CN3CCCC3)CCCCC2)c1 [Compound 33] |  | 1190 | 0.552 ± 0.02 |  | 0.73 ± 0.08 |  |  |
| Oc1ccc(C2(CN3CCCC3)CCCCC2)cc1 [Compound 30] | did not improve potency as much as the 3-hydroxy derivative | 1740 | > 25 |  | 0.78 ± 0.02 | inactive at PCP receptor sites | selectivity for σ receptors (in words) (SIGMA RECEPTOR): considerably improved selectivity for σ receptors |
| C[N+]1(CCOC(=O)C2(c3ccccc3)CCCCC2)CCCCC1 [Compound 4] |  |  |  | > 25 |  | reduced the potency in the PCP receptor assay; also recorded: drastically reduced potency for both σ and PCP receptors; also recorded: inactive in the PCP assay; also recorded: did not increase potency for PCP receptors | IC50 (SIGMA RECEPTOR; [6]): > 25000 nM |
| c1ccc(C2(CN3CCCC3)CCCCC2)cc1 [Compound 6] | increased potency for σ receptors | 4750 |  | 1.27 | 0.88 ± 0.07 | already inactive at PCP receptors | IC50 (SIGMA RECEPTOR; [6]): 4740 nM; SIGMA RECEPTOR SLOPE (SIGMA RECEPTOR; [4]): 0.88 ± 0.07 |
| COc1ccc(C2(CN3CCOCC3)CCCCC2)cc1OC [Compound 38] | essentially inactive in both σ and PCP binding assays | > 25000 | > 25 |  |  | essentially inactive in both σ and PCP binding assays |  |
| CCN(CC)CC1(c2ccc([N+](=O)[O-])cc2)CCCCC1 [Compound 39] |  | 304 | > 25 |  | 0.44 ± 0.01 |  |  |
| CCN(CC)CC1(c2ccccc2)CCCCC1 [Compound 14] | increased potency for σ receptors |  | > 25 | > 25 | 0.66 ± 0.17 | inactive in the PCP receptor assay | IC50 (SIGMA RECEPTOR; [6]): 208 nM; SIGMA RECEPTOR SLOPE (SIGMA RECEPTOR; [4]): 0.66 ± 0.17 |
| COc1ccc(C2(CN3CCCC3)CCCCC2)cc1 [Compound 34] | somewhat potent | 546 | > 25 |  | 0.80 ± 0.07 | inactive at PCP sites | selectivity for σ receptors (in words) (SIGMA RECEPTOR): very selective for σ receptors |
| O=C(OCCN1CCCC1)C1(c2ccccc2)CC1 [Compound 47, 2-(1-Pyrrolidino)ethyl 1-Phenylcyclopropane-1-carboxylate hydrochloride] |  |  |  |  |  |  | SIGMA RECEPTOR SLOPE (SIGMA RECEPTOR; Table 3): 0.78 ± 0.09; IC50 (SIGMA RECEPTOR; [5]): 1460 nM; IC50 (PCP RECEPTOR; Table 3, cycloalkyl ring size): > 25 µM |
| COc1ccc(C2(CN(C)C)CCCCC2)cc1OC [Compound 43] | poor to reasonable potency at σ sites | 9050 | > 25 |  | 0.66 ± 0.13 |  | selectivity for σ receptors (in words) (SIGMA RECEPTOR): high selectivity for σ receptors |
| CC[N+](C)(CC)CCOC(=O)C1(c2ccccc2)CCCCC1 [Compound 16] | σ receptor potency increased; also recorded: effectively reversed the potency for σ receptors |  |  | > 25 |  | inactive in the PCP assay; also recorded: did not increase potency for PCP receptors | IC50 (SIGMA RECEPTOR; [6]): 2230 nM; SIGMA RECEPTOR SLOPE (SIGMA RECEPTOR; [4]): 0.86 ± 0.07 |

— patent US5086054A, “Novel arylcycloalkanepolyalkylamines” (SRI International, priority 1990, dated 1992)
